# What was measured:
# [1] = tested on: collagen (II)-induced auto-allergic arthritis; assay: Collagen (II)-induced auto-allergic arthritis; settings: for Rear paw inflammation Day 2 / Rear paw inflammation Day 4: paw inflamed by collagen (II) injection; for Percent Inhibitions Front paw inflam. / Percent Inhibitions Left rear paw / Percent Inhibitions Right rear paw: day 14
# Protocol: Collagen (Type II) induced polyarthritis was induced in female Wistar rats by injection of collagen (II) with a non-arthritogenic adjuvant to sensitise the test animals.
# PCO was given orally after dilution into olive oil (8 mg/ml) and administered at 2.5 ml/kg/day to give 20 mg/kg.
# Prophylactic treatment was from day 1 to day 13 (i.e. total […]) orally (p.o.). […] PCO was diluted into olive oil (6 mg/ml) for p.o. dosing at 2.5 ml/kg/day to give 15 mg/kg, and diluted into olive oil-cineole (17.3 v/v) (10 mg/ml) for t.d. administration at 2 ml/kg/day to give 20 mg/kg.
# Seatone™ was administered p.o. at 300 mg/kg; Nurofen™ was administered p.o. at 50 mg/kg; Na Aurothiomalate (ATM) was administered in 8 doses at 6.3 mg/kg subcutaneously (s.c.).
# Carrageenin paw oedema = assay: Acute carrageenin paw oedema assay; format: in vivo, rat; settings: for % Inhibition Oedema 1 hr / % Inhibition Oedema 2 hr: 30 mg/kg
# Protocol: Female Wistar rats (180-220 gm) were pre-dosed p.o. or i.p. with test formulations. 40 minutes later they were injected in each rear paw with 0.1 ml saline containing 0.6 mg Na carrageenin. The subsequent paw oedema was quantified by measuring the increase in paw thickness after one and two hours with a screw gauge micrometer. […] [The oedema recedes after three hours with this dose of carrageenin.]
# arthritic rats = assay: Anti-arthritic assay: adjuvant-induced polyarthritis, treatment days 10-13; format: in vivo; settings: for % Reduction in Inflammation: rear paw thickness day 14 vs control
# From the text: Though more time consuming, this assay is of more value than the acute assay (described above) as it detects not only (i) those anti-inflammatory drugs acting in the acute assay (but often at lower ED50 values) but also (ii) other agents e.g. clobuzarit (CIoZic^R) or lobenzarit (CCA), which obviously have unique arthritis-suppressant properties but are not anti-oedemic/antipyretic or otherwise detectable in acute assays.
# The protocol used is to pre-establish disease by injecting the arthritigen on Day 0, look for first signs of paw inflammation (usually manifest on Days 10-12) and then dose the animals with test materials for four days. Over this period, the paw inflammation in the untreated control animals “blooms” rapidly to reach a near maximum on Day 14. Drugs acting over this time-frame to hold down the paw swelling are certainly anti-symptomatic but rarely disease-ablating. On ceasing treatment, there is usually a recrudescence in symptoms. This however is a positive feature of this assay as it clearly indicates a) the drug has a finite action but gives some idea of its duration of efficacy by the rapidity (or otherwise) of the rebound; and b) the animals with minimal signs of disease on Day 14 reflected a positive drug effect rather than failure to respond to the original arthritigen (i.e. false negatives). An accurate description of this assay is “late prophylaxis”. Obviously by delaying treatment until after Day 14, one can look for “therapeutic activity”, but since changes may be slow or negligible within four days (even with some powerful NSAIDs), collection of adequate data is difficult.
# Details of the protocol used are: inject the arthritigen into the tailbase of female Wistar rats (160-200 gm)=800 mcg heat-killed Mycobact tuberculosis suspended in 0.1 ml squalane in such a fashion as to avoid any blood vessels and to promote optimal drainage into the lymphatics. Ten days later, the animals were weighed, the thickness of the rear paws and tail was measured and signs of inflammation in the forepaws scored on a scale of 0 to 4 +. After dosing with test compounds once daily for four days (i.e. on Days 10 through 13 post-arthritigen), these measurements were repeated on Days 14 and 18 (i.e. after completion of treatment and again after four days rebound) to monitor the arthritis development. […]
# Rats with the first signs of arthritis 10 days after inoculating with mycobacterial arthritogen were then treated orally with the test materials for 4 days only. Effectiveness of the test materials was measured as […] rear paw thickness on day 14 when compared to the control group H.
# [2] = tested on: Kaolin-induced paw oedema; assay: Kaolin-induced paw oedema; format: in vivo, rat; settings: 150 mg/kg p.o., without synergist
# Protocol: Kaolin-induced paw oedema was investigated as a possible assay for PCO since this inflammation is slower developing than that induced with carrageenin (which recedes after three hours). The protocol involves injecting 5 mg kaolin, suspended in water (not saline, in which it aggregates), into each rear paw 40 minutes after dosing the rats with PCO given both p.o. or i.p. as dispersions prepared with 0.02% Tween in either water (p.o.) or saline (i.p.). The paw swelling was then read two hours and five hours after the kaolin injection.
# stomach = assay: Gastro-toxicity assay; format: in vivo, rat
# Protocol: Gastro toxicity studies were carried out on female Wistar rats with established arthritis initiated with collagen (type II), not on drug therapy. Aspirin and PCO were suspended with 0.04% Tween-20 for oral dosing, after fasting animals overnight. […]
# [3] = 6.3 mg/kg s.c. in saline x8, every second day
# [4] = 6.3 mg/kg s.c. x8, every second day
# [5] = with MPL (Misoprostal 0.5 mg/kg p.o.)
# [6] = 50 mg/kg p.o. x15, prophylactic
# [7] = 50 mg/kg p.o. x15, prophylactic day 1 to day 13
smiles,measurement,setting,value
"O=C([O-])CC([S-])C(=O)[O-].[Au+].[Na+].[Na+] (stereo not shown) [ATM, sodium aurothiomalate]",Rear paw inflammation Day 2,[1]; [3],1.00 mm
same,Rear paw inflammation Day 4,[1]; [3],0.68 mm
same,Day 14: Signs arthritis Front paw inflam.,[1]; [4],1.3+
same,Day 14: Signs arthritis Left rear paw,[1]; [4],0.47 mm
same,Day 14: Signs arthritis Right rear paw,[1]; [4],0.70 mm
same,Percent Inhibitions rear paw inflammation Day 2,[1]; [4],29%
same,Percent Inhibitions rear paw inflammation Day 4,[1]; [4],46%
same,Percent Inhibitions Front paw inflam.,[1]; [4],41%
same,Percent Inhibitions Left rear paw,[1]; [4],76%
same,Percent Inhibitions Right rear paw,[1]; [4],60%
same,ΔWt(0-14),"[1]; 6.3 mg/kg s.c. x8, weight gain may be misleading (possible incipient kidney damage)",(+24) gm
same,toxic dose,"[1]; s.c. in saline every second day, higher doses were toxic",> 6.3 mg/kg
"CC(C)Cc1ccc(C(C)C(=O)O)cc1 (stereo not shown) [Nurofen, ibuprofen]",% Inhibition Oedema 1 hr,Carrageenin paw oedema; [5],56%
same,% Inhibition Oedema 2 hr,Carrageenin paw oedema; [5],58%
same,% Inhibition Oedema 1 hr,Carrageenin paw oedema; without MPL,37%
same,% Inhibition Oedema 2 hr,Carrageenin paw oedema; without MPL,42%
same,% Inhibition Front paw,"[1]; 40 mg/kg, days 8-14",72%
same,% Inhibition Rear L. paw,"[1]; 40 mg/kg, days 8-14",54%
same,% Inhibition Rear R. paw,"[1]; 40 mg/kg, days 8-14",07%
same,Mean Differences Days 8-15 Ft. Paw Inflam.,"[1]; 40 mg/kg, days 8-14",0.7 +
same,Mean Differences Days 8-15 Rear R. Paw,"[1]; 40 mg/kg, days 8-14",1.48 mm
same,Mean Differences Days 8-15 ΔWt,"[1]; 40 mg/kg, days 8-14",+15 gm
same,Mean Differences Days 8-15 Rear L. Paw,"[1]; 40 mg/kg, days 8-14 (7 daily doses), therapeutic",0.82 mm
same,Day 14: Signs arthritis Front paw inflam.,[1]; [6],2.5+
same,Day 14: Signs arthritis Left rear paw,[1]; [6],1.35 mm
same,Day 14: Signs arthritis Right rear paw,[1]; [6],1.72 mm
same,Percent Inhibitions rear paw inflammation Day 2,[1]; [6],(−05) %
same,Percent Inhibitions rear paw inflammation Day 4,[1]; [6],(−20) %
same,ΔWt(0-14),[1]; [6],+12 gm
same,Rear paw inflammation Day 2,[1]; [7],1.48 mm
same,Rear paw inflammation Day 4,[1]; [7],1.52 mm
same,Percent Inhibitions Front paw inflam.,[1]; [6],(−14) %
same,Percent Inhibitions Left rear paw,[1]; [6],32%
same,Percent Inhibitions Right rear paw,[1]; [6],02%
same,Differences Days 15-18 (Rebound) Front paw,"[1]; after 40 mg/kg, days 8-14",1.1+
same,Differences Days 15-18 (Rebound) Rear L. paw,"[1]; after 40 mg/kg, days 8-14",0.38
same,Differences Days 15-18 (Rebound) Rear R. paw,"[1]; after 40 mg/kg, days 8-14",0.38
same,Differences Days 15-18 (Rebound) ΔWt.,"[1]; after 40 mg/kg, days 8-14",+05
"COc1ccc2c(c1)c(CC(=O)O)c(C)n2C(=O)c1ccc(Cl)cc1 [Indomethacin, indomethacin]",% Reduction in Inflammation,arthritic rats; 1 mg/kg orally for 4 days,26%
same,% Reduction in Inflammation,arthritic rats; 3 mg/kg orally for 4 days,68%
same,% Reduction in Inflammation,arthritic rats; 5 mg/kg orally for 4 days,83%
CC(=O)Oc1ccccc1C(=O)O [Aspirin],effective dose in the standard anti-arthritic assay,arthritic rats; adjuvant-induced rat polyarthritis,300 mg/kg
same,% Inhibition Oedema 2 HR,[2]; 2 HR,55%
same,% Inhibition Oedema 5 HR,[2]; 5 HR,51%
same,ED50,"Carrageenin paw oedema; Rattus norvegicus, acute carrageenin assay",~150 mg/kg
same,effect on the stomach (in words),stomach; 300 mg/kg (20 times an effective dose of PCO),considerable gastric damage
same,Gastric lesion index,"stomach; High arthritis with 0.15 N HCl co-administered orally, oral in 0.04% Tween-20",>112
same,Gastric lesion index,"stomach; High arthritis, Day 15, oral in 0.04% Tween-20, fasted overnight",82
same,Gastric lesion index,"stomach; Low arthritis, Day 32, oral in 0.04% Tween-20, fasted overnight",41
